Experiment [1] relates to epidermal ODC protein. Put plainly: TPA-induced epidermal ODC protein expression (western blot). It is filed as in vivo, mouse. As to conditions: TPA topical. The procedure: (§1) FIG. 4. Inhibitory effect of Lupeol on TPA-induced epidermal ODC, iNOS and COX-2 protein expression in CD-1 mice: At different times after treatment, the animals were sacrificed, epidermal protein lysate was prepared, and ODC and COX-2 protein expression were determined. Equal loading of protein was confirmed by stripping the immunoblot and reprobing it for β-actin. The immunoblots shown here are representative of three independent experiments with similar results. The values above each lane indicate relative density of the band normalized to β-actin.
(§2) The animals were shaved on the dorsal side of the skin, divided into four groups and treated topically on the shaved area with either 0.4 ml vehicle (acetone), or TPA (3.2 nmol/0.4 ml acetone/animal, v/v), or Lupeol (1 or 2 mg/0.2 ml acetone/animal, w/v) followed 30 min later with TPA (3.2 nmol/0.2 ml acetone/animal). Animals were sacrificed at different times point i.e. 6, 12, 24 and 48 h post TPA treatment. […]
(§3) Epidermis from the whole skin was separated as described earlier (Katiyar et al., 1999) and was homogenized in ice-cold lysis buffer [50 mM Tris-HCl, 150 mM NaCl, 1 mM EGTA, 1 mM EDTA, 20 mM NaF, 100 mM Na3VO4, 0.5% NP-40, 1% Triton X-100, 1 mM PMSF (pH 7.4)] with freshly added protease inhibitor cocktail, Protease Inhibitor Cocktail Set III (Calbiochem, La Jolla, Calif., USA). […] The protein content in the lysates was measured by DC BioRad assay (BioRad Laboratories, Hercules, Calif.) as per the manufacturer's protocol.
(§4) For western blot analysis, 40 μg of the protein was resolved over 8-12% polyacrylamide gels and transferred to a nitrocellulose membrane. […] This was followed by incubation with anti-mouse or anti-rabbit secondary antibody horse-radish peroxidase (Amersham Life Sciences, Inc., USA) for 1 h and then washed several times and detected by chemiluminescence ECL kit, (Amersham Life Sciences, Inc., USA) and autoradiography using XAR-5 film obtained from Eastman Kodak Co. (Rochester, N.Y., USA). […]

Experiment [2] has as its system epidermal iNOS protein. The experiment is described as follows: TPA-induced epidermal iNOS protein expression (western blot). It is filed as in vivo, mouse. As to conditions: TPA alone topical. The procedure: as §1, §2, §3, §4
Experiment [3] has as its system catalytic (p110) and regulatory (p85) subunit of PI3K. Put plainly: TPA-induced epidermal PI3K expression (western blot). It is filed as in vivo, mouse. Here is the method:
(§5) FIG. 5. Inhibitory effect of Lupeol on TPA-induced activation of PI3K and phosphorylation of Akt in CD-1 mice: At different times after treatment, the animals were sacrificed, epidermal protein lysate was prepared, and PI3K and phosphorylated (Thr^308) Akt and total Akt protein expression were determined. The immunoblots shown here are representative of three independent experiments with similar results. The values above each lane indicate relative density of the band normalized to β-actin.
(§6) The animals were shaved on the dorsal side of the skin, divided into four groups and treated topically on the shaved area with either 0.4 ml vehicle (acetone), or TPA (3.2 nmol/0.4 ml acetone/animal, v/v), or Lupeol (1 or 2 mg/0.2 ml acetone/animal, w/v) followed 30 min later with TPA (3.2 nmol/0.2 ml acetone/animal). Animals were sacrificed at different times point i.e. 6, 12, 24 and 48 h post TPA treatment. The epidermis was separated from the whole skin and homogenized in 0.1 M Tris-HCl buffer (pH 7.2) using a Polytron tissue homogenizer (Brinkmann Instruments, Westbury, N.Y., USA) at 100,000×g supernatant, and microsomal fractions were prepared as described earlier (Katiyar and Mukhtar, 1997). The sample of 6 h treatment group was used to assess the ODC activity as this time point has previously been shown for optimal induction of the enzyme (Katiyar er al., 1996).
as §3, with “USA). The homogenate was then centrifuged at 14,000×g for 25 minutes at 4° C. and the supernatant (total cell lysate) was collected, aliquoted and stored at −80° C. For the preparation of nuclear lysate, 0.2 g of the epidermis was homogenized in 1 ml of ice-cold phosphate-buffered saline (pH 7.6) and centrifuged at 12,000×g for 5 min at 4° C.” for “USA).”
as §4

The test system of experiment [4] is CD-1 mouse skin. The experiment is described as follows: TPA-induced cutaneous edema, skin punch weight. It is filed as in vivo. The note with it: TPA alone, 3.2 nmole/mouse topical. The procedure:
Studies from the inventors' laboratory and by other have shown that TPA application to mouse skin results in cutaneous edema (Katiyar et at, 1996; Liang et at, 2002). In the present study, the inventors evaluated the protective effects of topical application of Lupeol in TPA-mediated cutaneous edema in CD-1 mouse. The inventors tested four doses 0.25, 0.5, 1 and 2 mg of Lupeol per animal in the inventors' preliminary studies. […] The CD-1 mice were topically treated with Lupeol (1 and 2 mg/mouse) and 30 min later were topically treated with TPA (3.2 nmole/mouse). […] At least four determinations were made at different dorsal skin sites per mouse in each group. The data represents the mean±SE of eight mice (*p<0.01 vs TPA).
as §6
To assess the inhibitory effect of pre-application of Lupeol on TPA-induced edema, 1 cm-diameter punches of skin from vehicle-, Lupeol-, TPA- or Lupeol- and TPA-treated mice were removed, made free of fat pads, and weighed immediately. After drying for 24 h at 50° C., the skin punches were reweighed, and the loss of water content was determined. The difference in the amount of water gain between the control (vehicle treated) and TPA treated represented the extent of edema induced by TPA, whereas that between the control vehicle and Lupeol plus TPA represented the inhibitory effect of Lupeol. For the hyperplasia study, skin was removed, fixed in 10% formalin, and embedded in paraffin. Vertical sections (5 μm) were cut, mounted on a glass slide, and stained with hematoxylin and eosin.

Experiment [5] concerns Akt. Put plainly: TPA-induced phosphorylation of Akt at Thr308 (western blot). In kind it is in vivo, mouse. The note with it: TPA, 6 h post treatment. Here is the method:
as §5, §2, §3, §4

In experiment [6] the test system is IKKα protein. Put plainly: TPA-induced activation of IKKα (western blot). In kind it is in vivo, mouse. The note with it: TPA topical. Here is the method:
FIG. 6. Inhibitory effect of Lupeol on TPA-induced activation of IKKα, and phosphorylation and degradation of IκBα in CD-1 mice: At different times after treatment, the animals were sacrificed, epidermal cytosolic was prepared, and protein expression was determined. Equal loading was confirmed by stripping the immunoblot and reprobing it for β-actin. The immunoblots shown here are representative of three independent experiments with similar results. The values above each lane indicate relative density of the band normalized to β-actin.
The animals were shaved on the dorsal side of the skin, divided into four groups and treated topically on the shaved area with either 0.4 ml vehicle (acetone), or TPA (3.2 nmol/0.4 ml acetone/animal, v/v), or Lupeol (1 or 2 mg/0.2 ml acetone/animal, w/v) followed 30 min later with TPA (3.2 nmol/0.2 ml acetone/animal). […]
Epidermis from the whole skin was separated as described earlier (Katiyar et al., 1999) and was homogenized in ice-cold lysis buffer [50 mM Tris-HCl, 150 mM NaCl, 1 mM EGTA, 1 mM EDTA, 20 mM NaF, 100 mM Na3VO4, 0.5% NP-40, 1% Triton X-100, 1 mM PMSF (pH 7.4)] with freshly added protease inhibitor cocktail, Protease Inhibitor Cocktail Set III (Calbiochem, La Jolla, Calif., USA). […] The protein content in the lysates was measured by DC BioRad assay (BioRad Laboratories, Hercules, Calif.) as per the manufacturer's protocol. […]

Experiment [7] concerns epidermal COX-2 protein. The experiment is described as follows: TPA-induced epidermal COX-2 protein expression (western blot). In kind it is in vivo, mouse. The note with it: TPA topical, 6 h post treatment. Here is the method:
as §1, §6
as §3, with “USA). The homogenate was then centrifuged at 14,000×g for 25 minutes at 4° C. and the supernatant (total cell lysate) was collected, aliquoted and stored at −80° C. For the preparation of nuclear lysate, 0.2 g of the epidermis was homogenized in 1 ml of ice-cold phosphate-buffered saline (pH 7.6) and centrifuged at 12,000×g for 5 min at 4° C.” for “USA).”
as §4

Turning to `CCCCCCCCCCCCCC(=O)O[C@@H]1[C@@H](C)[C@@]2(O)[C@@H](C=C(CO)C[C@]3(O)C(=O)C(C)=C[C@@H]23)[C@@H]2C(C)(C)[C@]12OC(C)=O` [TPA, 12-O-tetradecanoyl-phorbol acetate, reference compound], in experiment [1], the “increase in epidermal ODC protein level vs acetone treated control” value is reported as 4 fold. The “increase in iNOS protein expression vs vehicle treated controls” value in experiment [2] amounted to 5 fold. In addition, in experiment [3] (TPA topical), the “increase in expression of catalytic (p110) and regulatory (p85) subunit of PI3K” value was in the range of 2 to 3 fold. Besides, the “induction in the expression of catalytic subunit p110” value in experiment [3] (TPA, 6 h post treatment) was determined as 3 fold. Besides, in experiment [4], the “Skin punch weight 24 hrs” value was 23.5 ± 0.5 mg/cm2 and the “Skin punch weight 48 hrs” value is given as 25.5 ± 0.75 mg/cm2. For the same compound, the “maximum phosphorylation of Akt” value in experiment [5] turned out to be 3.8 fold. Besides, the “increase in the expression of IKKα protein” value in experiment [6] worked out at 5.5 fold. Also, in experiment [7], the “maximum increase in epidermal COX-2 protein expression vs acetone control” value is 2.7 fold.

(Values after patent US8618082B2, “Lupeol anti-tumor agent and uses thereof” (Wisconsin Alumni Research Foundation, priority 2004, dated 2013).)
